Reference: paper PMC3400037, “Application of a single-objective, hybrid genetic algorithm approach to pharmacokinetic model building” (Journal of Pharmacokinetics and Pharmacodynamics, 2012)
Where two headings read alike, the source gives them in different places.

Assays:
[1] = Population pharmacokinetic model of clinical plasma concentration data, manual stepwise forward inclusion/backward elimination (NONMEM); assay type: in vivo, human; conditions: final stepwise model, IV
Protocol: Manual stepwise model results were taken from the literature or were generated from unpublished data (DMAG) or data reported elsewhere in the literature. These models were determined using similar methods. Briefly, for each compound, a covariate free model was used to select the model compartment structure with the combination of inter-individual and residual variability structures resulting in the lowest objective function value calculated by NONMEM (twice the negative log likelihood plus a fixed constant offset) and a reasonable distribution of residuals as the base model.
Univariate evaluations of covariates were then performed. […] The covariate and its function form that (1) yielded the lowest objective function conditional on (2) improved the objective function value by at least 3.84 (citalopram, DMAG, and [14, 15, 17, 21]) or 7.88 [16] points compared to the base model (which corresponds to Chi-squared values of p = 0.05 and p = 0.005 with one degree of freedom, respectively) and (3) in which there appeared to be a graphical relationship between the deviation in an individual predicted value and the covariate value across individual predicted values was included in the model. The remaining covariates were then included individually in the updated model, the inclusion criteria evaluated, and the model sequentially updated with additional covariates until no further covariates met the model inclusion criteria.
Finally, individual covariates were removed from the final model and the change in the objective function was calculated. Covariates were excluded from the final model if, when the covariate was removed, the objective function value increased by less than 3.84 (citalopram, DMAG, [14, 15, 21]), 6.63 [17] (a Chi-squared value of p = 0.01 with one degree of freedom), or 7.88 [16]. Although the models were derived using different versions of NONMEM, the final models reported in the literature were re-run in NONMEM VI, Level 1.0 using Fortran G77 and NONMEM VII, version 7.2 with Intel Fortran to confirm that the results were independent of the NONMEM version.
All continuous covariates were centered at zero.

[2] = human, in vivo
Text: (§1) Individuals who received oral olanzapine [14], perphaenazine [15], risperidone [16], or ziprasidone [17] were patients treated between January 2001 and December 2004 as part of the Clinical Antipsychotic Trials of Intervention Effectiveness (CATIE)—a multisite, US study of randomized, double-blind, medication comparative-effectiveness trial—in the treatment of Alzheimer’s (CATIE-AD) and schizophrenia (CATIE-SZ). […] Individuals who received intravenous citalopram were part of a cross sectional study of healthy volunteers participating in Pittsburgh’s Adult and Human Behavior Project; these individuals were between the ages of 30 and 55 years and not taking medications for hypertension, lipid disorders, or diabetes [22]. Individuals who received intravenous DMAG were cancer patients either at Pittsburgh’s Cancer Institute or at Memorial Sloan-Kettering participating in a phase II study.
(§2) The SOHGA operates on a set of candidate models in which each candidate specifies covariates included the in model, their functional forms, the structure of the inter-individual and residual variability, and the initial pharmacokinetic model parameter estimates [3]. Special-use software in which the SOHGA, coded and run in Microsoft Visual Studio and Compaq Digital Fortran, creates NONMEM control files to fit parameters and calculate the fitness of candidate models using NONMEM VI, Level 1.0 or NONMEM VII, version 7.2 using either first-order (risperidone only) or first-order conditional estimation with interaction using Xpose [23].
(§3) The SOHGA retained a population of 200–400 candidate models for 30–50 generations. A total of 0.7 crossover events were expected per set of parents. Candidate models for crossover were randomly selected based on scaled fitness function values; linear regression was performed using all fitness functions within two standard deviations of the mean, the fitness of the regression values were scaled to between 0.2 and 4, and outlying values were assigned one of these extreme values. This scaling of the fitness function improves convergence by not permitting outliers to dominate the selection process. The mutation rate was 0.01 mutations per bit. The candidate model with best fitness function was retained to the next generation, a technique known as elitism. Niche evaluation (where a niches differ by <4 bits) was performed. In niche evaluation, a penalty is applied to models that are similar to other models (differ by 4 or fewer bits). This prevents early convergence, maintaining diversity in the population. Four niches were used, insuring that at least four regions of the search space were explored in each phase of the search. A simple downhill search was performed every five generations. In the downhill search, each bit of the best model in each niche in reversed (0 to 1, 1 to 0) and the resulting models run. For example, if the bit string if of length 40, the downhill search will generate 40 new models for each niche that each differ by a single bit. If any of the resulting models are better than the current best model for that niche, the process is repeated with that model, until no further improvement is seen. Finally, timeout conditions were set where NONMEM timed out (terminated without completion failing convergence) after up to 600 min for a model and a generation timed out after up to 6,000 min although the exact timeout conditions varied by compound.

clinical = conditions: human, in vivo, iv
Text: as §1, §2, §3

[3] = Population pharmacokinetic model of clinical plasma concentration data, single-objective hybrid genetic algorithm (SOHGA) coupled to NONMEM; conditions: best SOHGA candidate model
Text: as §1, §2, §3

[4] = final stepwise model, oral, cited from earlier work; for Volume of distribution (L)—TVV / Clearance (L/h)—TVCL: one compartment with absorption; for Volume of distribution (L)—TVV: (relative standard error; perphenazine: 95 % CI from bootstrapping); for Absorption rate constant (1/h)—TVKA: fixed based on literature, not estimated
[5] = three compartment, (relative standard error)
[6] = IV, three compartment, (relative standard error)
[7] = CYP2C19 genotype, (relative standard error)
[8] = 3 component mixture for clearance, FO, (relative standard error)
[9] = 3 component mixture for clearance
[10] = oral, one compartment with absorption, (relative standard error)

CN(C)CCCC1(c2ccc(F)cc2)OCc2cc(C#N)ccc21 (stereo not shown) [Citalopram, citalopram]
Inter-individual variability—ωQ of ηQ ([1]; standard deviation ω): 48.5 % (NA)
Inter-individual variability—ωV1 of ηV1 ([1]; standard deviation ω): 12.2 % (NA)
Inter-individual variability—ωV2 of ηV2 ([1]; standard deviation ω): 22.6 % (NA)
Central volume (L)—TVV1 ([1]; two compartment): 2.87 (NA) L
Peripheral volume (L)—TVV2 ([1]; two compartment): 1,510 (NA) L
clearance ([1]; human, plasma, 0.33 mg/kg lean body mass, typical value (relative standard error), read-out: Clearance (L/h)—TVCL (converted)): 7.11 L/h
Central volume (L)—TVV1 ([2]; iv): 82.1 (17.7 %) L
Inter-comp clearance (L/h)—TVQ ([2]; iv): 6.26 (19.0 %) L/h
Inter-individual variability—ωQ of ηQ ([2]; iv): 35.5 % (19.0 %)
Inter-individual variability—ωV1 of ηV1 ([2]; iv): 46.2 % (15.5 %)
Inter-individual variability—ωV2 of ηV2 ([2]; iv): 25.4 % (12.5 %)
Peripheral volume (L)—TVV2 ([2]; iv): 205 (12.6 %) L
clearance (clinical): 20.3 mL/min

CO[C@H]1/C=C\C=C(/C)C(=O)NC2=CC(=O)C(NCCN(C)C)=C(C[C@@H](C)C[C@H](OC)[C@H](O)[C@@H](C)/C=C(\C)[C@@H]1OC(N)=O)C2=O [DMAG, 17-(dimethylaminoethylamio)-17-demethoxygeldanamycin]
Inter-occasion variability (first compartment volume) [1]: 59.7 % (31.2 %)
Inter-occasion variability—ωQ1 of ηOCC,Q1 [1]: 32.6 % (37.2 %)
Inter-patient variability—ωQ2 of ηQ2 [1]: 75.8 % (32.0 %)
Inter-patient variability—ωV3 of ηV3 [1]: 67.5 % (37.3 %)
Inter-individual variability—ωV1 of ηV1 ([1]; standard deviation ω): 33.0 % (111.9 %)
Inter-individual variability—ωV2 of ηV2 ([1]; standard deviation ω): 50.7 % (23.7 %)
Inter-patient variability—ωCL of ηCL ([1]; standard deviation ω): 53.8 % (22.9 %)
First compartment volume (L)—TVV1 [1, 5]: 27.4 (11.7 %) L
Second compartment volume (L)—TVV2 [1, 5]: 66.4 (10.1 %) L
Third compartment volume (L)—TVV3 [1, 5]: 142 (13.5 %) L
Clearance (L/h)—TVCL ([1]; typical value (relative standard error)): 8.4 (11.2 %) L/h
Inter-individual variability—ωV1 of ηV1 ([3]; IV): 39.7 % (24.5 %)
Inter-individual variability—ωV2 of ηV2 ([3]; IV): 42.3 % (24.8 %)
Inter-occasion variability—ωCL of ηOCC,CL ([3]; IV): 8.3 % (38.6 %)
Inter-occasion variability—ωQ1 of ηOCC,Q1 ([3]; IV): 14.0 % (32.7 %)
Inter-patient variability—ωCL of ηCL ([3]; IV): 22.1 % (29.1 %)
First compartment volume (L)—TVV1 [3, 6]: 28.1 (12.9 %) L
Second compartment volume (L)—TVV2 [3, 6]: 77.9 (11.4 %) L
Third compartment volume (L)—TVV3 [3, 6]: 86.4 (8.5 %) L
Clearance (L/h)—TVCL ([3]; IV, typical value (relative standard error)): 9.28 (7.9 %) L/h

CN(C)CCC[C@@]1(c2ccc(F)cc2)OCc2cc(C#N)ccc21 [Escitalopram, escitalopram]
Absorption rate constant (1/h)—TVKA ([2]; po): 0.594 (23.1 %) 1/h
Clearance (L/h)—TVCL ([2]; po): 25.5 (5.3 %) L/h
Inter-individual variability—ωV of ηV ([2]; po): 59.4 % (32.6 %)
Volume of distribution (L)—TVV ([2]; po): 874 (11.8 %) L
Clearance (L/h)—TVCL, Missing metabolizer information ([4]; (relative standard error)): 21.5 (7.80 %) L/h
Clearance (L/h)—TVCL, Extensive metabolizer [4, 7]: 26 (7.20 %) L/h
Clearance (L/h)—TVCL, Poor metabolizer [4, 7]: 19.8 (8.50 %) L/h
Inter-individual variability—ωV of ηV [4]: 62.0 % (40.3 %)
Volume of distribution (L)—TVV [4]: 947 (10.2 %) L

Cc1cc2c(s1)Nc1ccccc1N=C2N1CCN(C)CC1 [Olanzapine, olanzapine]
Absorption rate constant (1/h)—TVKA ([2]; po): 0.773 (70.4 %) 1/h
Clearance (L/h)—TVCL ([2]; po): 21.1 (15.5 %) L/h
Inter-individual variability—ωCL of ηCL ([2]; po): 64.7 % (17.2 %)
Volume of distribution (L)—TVV ([2]; po): 4,130 (48.9 %) L
Inter-individual variability—ωCL of ηCL [4]: 68%
Inter-individual variability—ωV of ηV [4]: 86%
Absorption rate constant (1/h)—TVKA [4]: Fixed at 0.5 1/h
Clearance (L/h)—TVCL ([4]; (relative standard error)): 16.1 (7.3 %) L/h
Volume of distribution (L)—TVV [4]: 2,150 (26.0 %) L

OCCN1CCN(CCCN2c3ccccc3Sc3ccc(Cl)cc32)CC1 [Perphenazine, perphenazine]
Absorption rate constant (1/h)—TVKA ([2]; po): 0.859 (80.7 %) 1/h
Clearance (L/h)—TVCL ([2]; po): 354 (12.3 %) L/h
Inter-individual variability—ωCL of ηCL ([2]; po): 78.8 % (11.4 %)
Volume of distribution (L)—TVV ([2]; po): 1.10x10^7 (172 %) L
Clearance (L/h)—TVCL ([4]; (relative standard error)): 483 L/h
Volume of distribution (L)—TVV [4]: 18,200 (13,865 - 65,795) L

Cc1nc2n(c(=O)c1CCN1CCC(c3noc4cc(F)ccc34)CC1)CCCC2 [Risperidone, risperidone]
Absorption rate constant (1/h)—TVKA ([2]; po): 0.184.(21.1 %) 1/h
Central volume—TVV1 ([2]; po): 96.6 (31.2 %)
Clearance (L/h)—TVCL, Extensive metabolizer ([2]; po): 122 (11.5 %) L/h
Clearance (L/h)—TVCL, Intermediate metabolizer ([2]; po): 34.9 (8.9 %) L/h
Clearance (L/h)—TVCL, Poor metabolizer ([2]; po): 12.4 (8.5 %) L/h
Inter-comp clearance—TVQ ([2]; po): 27.1 (29.9 %)
Inter-individual variability—η^(V1) ([2]; po): 478 % (46.4 %)
Inter-individual variability—ωCL of ηCL ([2]; po): 7.3 % (32.2 %)
Percent of subjects who were extensive metabolizers ([2]; po): 41.4 % (8.6 %)
Percent of subjects who were poor metabolizers ([2]; po): 22.4 % (4.4 %)
Peripheral volume—TVV2 ([2]; po): 1.31x10^10 (1,000 %)
Clearance (L/h)—TVCL, Extensive metabolizer [4, 8]: 65.4 (9.9 %) L/h
Clearance (L/h)—TVCL, Poor metabolizer [4, 8]: 12.9 (6.5 %) L/h
Inter-individual variability—ωCL of ηCL, Extensive metabolizer [4, 9]: 56.6 % (16.8 %)
Inter-individual variability—ωCL of ηCL, Poor metabolizer [4, 9]: 95.9 % (39.5 %)
Percent of subjects who were extensive metabolizers [4, 9]: 52.4 % (6.2 %)
Percent of subjects who were poor metabolizers [4, 9]: 41.2 % (8.1 %)
Inter-individual variability—ωKA of ηKA [4]: 53.7 % (89.3 %)
Inter-individual variability—ωV of ηV [4]: 36.1 % (24.4 %)
Absorption rate constant (1/h)—TVKA [4]: Fixed at 1.7 1/h
Volume of distribution (L)—TVV [4]: 444 (17.8 %) L

O=C1Cc2cc(CCN3CCN(c4nsc5ccccc45)CC3)c(Cl)cc2N1 [Ziprasidone, ziprasidone]
Absorption rate constant (1/h)—TVKA ([2]; po): 0.424 (5.8 %) 1/h
Inter-individual variability—ωCL of ηCL ([2]; po): 69.0 % (21.4 %)
Inter-individual variability—ωV of ηV ([2]; po): 114 % (16.0 %)
Inter-individual variability—ωCL of ηCL [4]: 64.8 % (25 %)
Inter-individual variability—ωV of ηV [4]: 104.4 % (27 %)
Absorption rate constant (1/h)—TVKA [4]: Fixed at 0.5 1/h
Clearance (L/h)—TVCL ([4]; (relative standard error)): 122 (9 %) L/h
Volume of distribution (L)—TVV [4]: 1,060 (19 %) L
Clearance (L/h)—TVCL [3, 10]: 126 (9.0 %) L/h
Volume of distribution (L)—TVV [3, 10]: 1,030 (12.4 %) L
